Like-named read-outs stand apart in the source and are kept apart here. Values belong to the molecule of their own block, whether it stands above or below them.
Legend:
[1] = Pharmacokinetic evaluation in mice, oral administration; assay type: in vivo, Balb/c mice; conditions: p.o. 5 mg/kg, plasma; for AUC(0-inf) / AUC(0-t) / Cmax / Tmax / MRT inf: mouse, in vivo, po; for MRT inf: read-out: MRT 0-∞
Protocol: Balb/c mice were used as test animals to study the pharmacokinetic behavior of the compound of the present invention in mice (plasma) at a dose of 5 mg/kg administered orally and 1 mg/kg administered intravenously.
Balb/c mice, 3 per group, male.
Preparation of drug for oral administration: 10%PEG400/10%PG/80% glycine buffer (100 mM glycine, 64 Mm NaOH, […]) buffer.
10 ml of PEG400, 10 ml of PG, and 80 ml of (100 mM glycine, 64 Mm NaOH, pH = 9) were measured into a 100 ml volumetric flask, vortexed, mixed homogeneously, and sonicated to obtain a clear solution.
Single PK: An example compound was weighed into a 4 mL glass bottle. The solution was added, and sonication was performed for 10 min to obtain a colorless clear solution having a concentration of 0.5 mg/mL.
The solution was added, and sonication was performed for 10 min to obtain a colorless clear solution having a concentration of 0.5 mg/mL.
Three Balb/c mice, male, respectively administered p.o. after fasting overnight, at a dose of 5 mg/kg and in an administration volume of 10 mL/kg.
The blood samples were placed in EDTA-K2 anticoagulant tubes and centrifuged at 6000 rpm at 4°C for 6 min to separate plasma, which was stored at -80°C. The mice were fed 4 h after administration.
• 1) 40 µL of a plasma sample was added with 160 µL of acetonitrile for precipitation, and after mixing, the mixture was centrifuged at 3500 × g for 5 to 20 min. • 2) The supernatant solution after treatment was taken for LC/MS/MS analysis of the concentration of the test compound. The LC/MS/MS analysis instrument was AB Sciex API 4000 Qtrap.
• Liquid phase condition: Shimadzu LC-20AD pump • Chromatographic column: Agilent ZORBAX XDB-C18 (50×2.1 mm, 3.5 µm) Mobile phase: Solution A was 0.1% formic acid aqueous solution, and Solution B was acetonitrile • Flow rate: 0.4 mL/min • Elution time: 0-4.0 min, the eluent was as follows:
Main pharmacokinetic parameters were calculated using WinNonlin 6.1.

[2] = molecular target: T1, human GLP-1 receptor (Homo sapiens, UniProt P43220); test: cAMP production in cell line stably transformed with human GLP1 receptor, 2 h co-incubation (HTRF); assay type: cell-based; conditions: CHO-K1/GLP-1R/CRE-luc cells, stimulation for 2 h, read-out: EC50
T1 construct: expressed in transfected cells
Protocol: The purpose of this assay example is to test the ability of the compound to activate the human GLP-1 receptor on cell surface. The EC50 for stimulated cAMP production after activation characterizes the ability of the compound to activate the human GLP-1 receptor.
In this experiment, the compound and cells were co-incubated for 2 h.
Frozen cell line CHO-K1/GLP-1R/CRE-luc stably transformed with human GLP1 receptor was removed from a liquid nitrogen tank, and was placed in a 37°C water bath for rapid thawing. The cells were resuspended in DMEM/F12 medium, and after centrifugation, were washed once. The cells were resuspended in an experimental buffer, i.e., DMEM/F12 medium containing 0.1% casein. After centrifugation, cell density was adjusted using the experimental buffer. The cells were plated onto a 384-well plate at a density of 1500 cells/5 µL/well. Then, each well was added with 2.5 µL of IBMX working solution prepared with the buffer, the final concentration of IBMX being 0.5 mM, and 2.5 µL of a serially diluted compound sample (starting from […], 3-fold dilution, 12 concentrations). The plate was centrifuged at 1000 rpm for 1 min, and was stood for incubation at 37°C for 2 h. Determination was performed using the Cisbio cAMP - Gs Dynamic kit. cAMP-d2 and anti-cAMP-Eu3+-Cryptate were diluted 18-fold and 20-fold respectively with cAMP Lysis & Detection Buffer, and were respectively mixed homogeneously. Each well was added with 5 µL of diluted cAMP-d2 solution, and the plate was centrifuged at 1000 rpm for 1 min, and shaken for 30 seconds for homogeneous mixing. Then, each well was added with 5 µL of diluted anti-cAMP-Eu3+-Cryptate solution, and the plate was centrifuged at 1000 rpm for 1 min and was incubated in the dark at room temperature for 1 h. HTRF signals were read using the Biotek Synergy H1 microplate reader, the excitation wavelength being 320 nm and the emission wavelengths being 620 nm and 665 nm.
The signal-to-signal ratio was calculated (665 nm/620 nm * 10,000). Nonlinear fitting between the signal-to-signal ratio and the sample concentration was performed in GraphPad Prism 10 using a four-parameter equation to obtain the EC50 value.

[3] = not marked single PK (cassette PK)

T1 sequence (P43220 24-463): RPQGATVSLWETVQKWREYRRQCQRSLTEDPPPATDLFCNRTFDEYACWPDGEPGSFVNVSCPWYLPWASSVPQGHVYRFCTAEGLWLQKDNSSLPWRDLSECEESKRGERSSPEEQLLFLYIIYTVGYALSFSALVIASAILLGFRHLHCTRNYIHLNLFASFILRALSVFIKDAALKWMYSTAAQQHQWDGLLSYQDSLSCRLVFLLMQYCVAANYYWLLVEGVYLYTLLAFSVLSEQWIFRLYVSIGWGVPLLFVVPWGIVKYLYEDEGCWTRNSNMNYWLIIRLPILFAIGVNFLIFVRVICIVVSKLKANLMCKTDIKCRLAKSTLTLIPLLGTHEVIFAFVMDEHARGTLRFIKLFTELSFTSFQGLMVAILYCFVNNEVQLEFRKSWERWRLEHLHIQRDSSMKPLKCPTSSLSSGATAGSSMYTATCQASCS

- AUC(0-inf) [1, 3]: 9320 ng·h/mL
- AUC(0-t) [1, 3]: 8990 ng·h/mL
- Cmax [1, 3]: 1040 ng/mL
- Tmax [1, 3]: 1 h
- MRT inf [1, 3]: 6.7 h
- tl/2 [1, 3]: 5.3 h
SMILES: C[C@H]1c2c(nn(-c3ccc(F)c(C4CC4)c3)c2-n2ccn(-c3ccc4c(c3)C3(CC3)C(=O)N4C)c2=O)CCN1C(=O)c1cc2cc([C@H]3CCOC(C)(C)C3)ccc2n1[C@@]1(c2noc(=O)[nH]2)C[C@@H]1C [Example 32]

SMILES: Cc1cc(-n2nc3c(c2-n2ccn(-c4cc5c6c(c4)OCCN6C(=O)CC5)c2=O)[C@H](C)N(C(=O)c2cc4cc([C@H]5CCOC(C)(C)C5)ccc4n2[C@@]2(c4noc(=O)[nH]4)C[C@@H]2C)CC3)cc(C)c1F [Example 43]
- EC50 [2]: 60 pM

SMILES: Cc1cc(-n2nc3c(c2-n2ccn(-c4ccc5c(cnn5C5CC5)c4F)c2=O)[C@H](C)N(C(=O)c2cc4cc([C@H]5CCOC(C)(C)C5)ccc4n2[C@@]2(c4noc(=O)[nH]4)C[C@@H]2C)CC3)cc(C)c1C#N [Example 49]
- EC50 [2]: 32 pM
- AUC(0-inf) ([1]; single PK): 16600 ng·h/mL
- AUC(0-t) ([1]; single PK): 15700 ng·h/mL
- Cmax ([1]; single PK): 2430 ng/mL
- Tmax ([1]; single PK): 1 h
- MRT inf ([1]; single PK): 7.1 h
- tl/2 ([1]; single PK): 6.5 h

SMILES: Cc1cc(-n2nc3c(c2-n2ccn(-c4ccc5c(cnn5C5CC5)c4F)c2=O)[C@H](C)N(C(=O)c2cc4cc([C@H]5CCOC(C)(C)C5)ccc4n2[C@@]2(c4noc(=O)[nH]4)C[C@@H]2COC(F)F)CC3)cc(C)c1F [Example 68]
- EC50 [2]: 16 pM

SMILES: C#C[C@H]1C[C@]1(c1noc(=O)[nH]1)n1c(C(=O)N2CCc3nn(-c4cc(C)c(F)c(C)c4)c(-n4ccn(-c5cc6c7c(c5)CCC(=O)N7CCC6)c4=O)c3[C@@H]2C)cc2cc([C@H]3CCOC(C)(C)C3)ccc21 [Example 174]
- EC50 [2]: 150 pM

SMILES: Cc1cc(-n2nc3c(c2-n2ccn(-c4ccc5c(cnn5C5CC5)c4F)c2=O)[C@H](C)N(C(=O)c2cc4cc([C@H]5CCOC(C)(C)C5)ccc4n2[C@@]2(c4noc(=O)[nH]4)C[C@@H]2COc2ccccc2)CC3)cc(C)c1F [Example 187]
- EC50 [2]: 80 pM

SMILES: Cc1cc(-n2nc3c(c2-n2ccn(-c4ccc5c(cnn5C5CC5)c4F)c2=O)[C@H](C)N(C(=O)c2cc4cc([C@H]5CCOC(C)(C)C5)ccc4n2[C@@]2(c4noc(=O)[nH]4)C[C@@H]2C#N)CC3)cc(C)c1F [Example 190]
- EC50 [2]: 40 pM

SMILES: Cc1cc(-n2nc3c(c2-n2ccn(-c4ccc5c(cnn5C5CC5)c4F)c2=O)[C@H](C)N(C(=O)c2cc4cc([C@H]5CCOC(C)(C)C5)ccc4n2[C@@]2(c4noc(=O)[nH]4)C[C@@H]2COC2CC2)CC3)cc(C)c1C#N [Example 195]
- EC50 [2]: 35 pM

SMILES: Cc1cc(-n2nc3c(c2-n2ccn(-c4cc5c6c(c4)CCC(=O)N6CCC5)c2=O)[C@H](C)N(C(=O)c2cc4cc([C@H]5CCOC(C)(C)C5)ccc4n2[C@@]2(c4noc(=O)[nH]4)C[C@@H]2COC2CC2)CC3)cc(C)c1F [Example 200]
- EC50 [2]: 90 pM
